# In patent US11000033B2, “Ketone or oxime compound, and herbicide” (NISSAN CHEMICAL CORPORATION, priority 2014, dated 2021):
# Assays:
# Assay type in all cases: in vivo
# [1] = test system: Echinochloa oryzacola Vasing.; assay: Test Example 1: herbicidal activity, application before weed generation in submerged conditions (symbol A); details: application herbicide amount 320 g/ha
# Method in brief: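 Ratings (5: ≥90%, near complete withering; 4: 70–<90%; 3: 40–<70%; 2: 20–<40%; 1: 5–<20%; 0: ≤5%) were assigned 3 weeks after the diluted emulsion was applied to the water surface of freshly sown, submerged pots.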
# transplanted rice plant = assay: Test Example 1: effect on crop, application before weed generation in submerged conditions (symbol a); details: application herbicide amount 320 g/ha
# Method in brief: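 Alluvial soil pots flooded to 4 cm water, sown with Echinochloa oryzacola, Scirpus juncoides and Monochoria vaginalis, then transplanted with 2.5 leaf stage rice seedlings; pre-emergence application. Greenhouse 25° C. to 30° C.; scored 0–5 by herbicidal ratio 3 weeks after application.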
# Monochoria vaginalis = assay: Test Example 2: herbicidal activity, application during weed generation in submerged conditions (symbol C); details: Table 23; application herbicide amount 320 g/ha; grade 0-5 by criteria of Test Example 1
# Method in brief: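 Steps: fill pots with alluvial soil; add water to 4 cm depth; co-sow the three weeds; grow at 25° C. to 30° C. under glass; at 1–2 leaves, dose the floodwater with diluted emulsion; rate damage visually after 3 weeks.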
# Digitaria ciliaris = assay: Test Example 4: herbicidal effect by soil treatment (symbol F); details: application herbicide amount 320 g/ha
# Method in brief: (§1)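 Seeds were sown in sterilized diluvial soil, covered with about 1.5 cm of soil, and the soil surface was sprayed with a water-diluted emulsion of the compound at a predetermined rate. Plants grew in a greenhouse at 25° C. to 30° C.; effects were scored visually 3 weeks after application.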
# [2] = test system: Echinochloa crus-galli var. crus-galli; assay: Test Example 4: herbicidal effect by soil treatment (symbol H); details: application herbicide amount 320 g/ha
# Method in brief: as §1
# Avena fatua = assay: Test Example 4: herbicidal effect by soil treatment (symbol I); details: application herbicide amount 320 g/ha
# Method in brief: as §1
# Lolium multiflorum Lam. [3] = assay: Test Example 4: herbicidal effect by soil treatment (symbol K); details: application herbicide amount 320 g/ha
# Method in brief: as §1
# Apera spica-venti [4] = assay: Test Example 4: herbicidal effect by soil treatment (symbol L); details: application herbicide amount 320 g/ha
# Method in brief: as §1
# Chenopodium album = assay: Test Example 4: herbicidal effect by soil treatment (symbol O); details: application herbicide amount 320 g/ha
# Method in brief: as §1
# Stellaria media [5] = assay: Test Example 4: herbicidal effect by soil treatment (symbol P); details: application herbicide amount 320 g/ha
# Method in brief: as §1
# soybean = assay: Test Example 4: effect on crop by soil treatment (symbol d); details: application herbicide amount 320 g/ha
# Method in brief: (§2)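 Seeds were sown in spots on sterilized diluvial soil in a plastic box and covered with about 1.5 cm of soil. Plants were then grown in a greenhouse at 25° C. to 30° C.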
# rice = assay: Test Example 4: effect on crop by soil treatment (symbol b); details: application herbicide amount 320 g/ha
# Method in brief: as §2
# rapeseed = assay: Test Example 4: effect on crop by soil treatment (symbol g); details: application herbicide amount 320 g/ha
# Method in brief: as §2
# [6] = test system: Echinochloa crus-galli var. crus-galli; assay: Test Example 5: herbicidal effect by foliage application, plastic box (symbol H); details: 320 g/ha, 3 weeks after application
# Method in brief: (§3)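 Seeds were sown in sterilized diluvial soil, covered with about 1.5 cm of soil and grown 14 days in a greenhouse at 25° C. to 30° C. An emulsifiable formulation diluted in water to a set rate was sprayed over foliage, and injury was scored 3 weeks later.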
# Lolium multiflorum Lam. [7] = assay: Test Example 5: herbicidal effect by foliage application, plastic box (symbol K); details: 320 g/ha, 3 weeks after application
# Method in brief: as §3
# Apera spica-venti [8] = assay: Test Example 5: herbicidal effect by foliage application, plastic box (symbol L); details: 320 g/ha, 3 weeks after application
# Method in brief: as §3
# Stellaria media [9] = assay: Test Example 5: herbicidal effect by foliage application, plastic box (symbol P); details: 320 g/ha, 3 weeks after application
# Method in brief: as §3
Structure (SMILES),"Herbicidal effect grade, A: Echinochloa oryzacola Vasing. [1]","Effect grade on crop, a: transplanted rice plant (transplanted rice plant)","Herbicidal effect grade, C: Monochoria vaginalis (Monochoria vaginalis)","F: Digitaria ciliaris, herbicidal effect grade (Digitaria ciliaris)","H: Echinochloa crus-galli var. crus-galli, herbicidal effect grade [2]","I: Avena fatua, herbicidal effect grade (Avena fatua)","K: Lolium multiflorum Lam., herbicidal effect grade (Lolium multiflorum Lam. [3])","L: Apera spica-venti, herbicidal effect grade (Apera spica-venti [4])","O: Chenopodium album, herbicidal effect grade (Chenopodium album)","P: Stellaria media, herbicidal effect grade (Stellaria media [5])","d: soybean, effect on crop grade (soybean)","b: directly sowed rice plant, effect on crop grade (rice)","g: rapeseed, effect on crop grade (rapeseed)","H: Echinochloa crus-galli var. crus-galli, herbicidal effect grade [6]","K: Lolium multiflorum Lam., herbicidal effect grade (Lolium multiflorum Lam. [7])","L: Apera spica-venti, herbicidal effect grade (Apera spica-venti [8])","P: Stellaria media, herbicidal effect grade (Stellaria media [9])"
Cc1cc(C)c(C2=C(O)CC(CC(=O)Cc3ccccc3)C2=O)c(C)c1 (stereo not shown) [2-015],0 (Herbicidal ratio of 5% or lower (almost no effect)),0 (Herbicidal ratio of 5% or lower (almost no effect)),0 (Herbicidal ratio of 5% or lower (almost no effect)),3 (Herbicidal ratio of 40% or higher and lower than 70%),1 (Herbicidal ratio of 5% or higher and lower than 20%),0 (Herbicidal ratio of 5% or lower (almost no effect)),5 (Herbicidal ratio of 90% or more (almost completely withered)),3 (Herbicidal ratio of 40% or higher and lower than 70%),0 (Herbicidal ratio of 5% or lower (almost no effect)),0 (Herbicidal ratio of 5% or lower (almost no effect)),0 (Herbicidal ratio of 5% or lower (almost no effect)),4 (Herbicidal ratio of 70% or higher and lower than 90%),0 (Herbicidal ratio of 5% or lower (almost no effect)),5 (Herbicidal ratio of 90% or more (almost completely withered)),5 (Herbicidal ratio of 90% or more (almost completely withered)),3 (Herbicidal ratio of 40% or higher and lower than 70%),0 (Herbicidal ratio of 5% or lower (almost no effect))
CCc1cc(-n2cc(Cl)cn2)cc(C)c1C1=C(O)CC(CC(C)=NOC)C1=O (mixture of isomers) [6-005],5 (Herbicidal ratio of 90% or more (almost completely withered)),5 (Herbicidal ratio of 90% or more (almost completely withered)),3 (Herbicidal ratio of 40% or higher and lower than 70%),5 (Herbicidal ratio of 90% or more (almost completely withered)),5 (Herbicidal ratio of 90% or more (almost completely withered)),4 (Herbicidal ratio of 70% or higher and lower than 90%),5 (Herbicidal ratio of 90% or more (almost completely withered)),5 (Herbicidal ratio of 90% or more (almost completely withered)),0 (Herbicidal ratio of 5% or lower (almost no effect)),0 (Herbicidal ratio of 5% or lower (almost no effect)),1 (Herbicidal ratio of 5% or higher and lower than 20%),5 (Herbicidal ratio of 90% or more (almost completely withered)),0 (Herbicidal ratio of 5% or lower (almost no effect)),5 (Herbicidal ratio of 90% or more (almost completely withered)),5 (Herbicidal ratio of 90% or more (almost completely withered)),5 (Herbicidal ratio of 90% or more (almost completely withered)),–
CCc1cc(C)cc(C)c1C1=C(O)CC(CC(C)=NOC)C1=O (stereo not shown) [6-007],5 (Herbicidal ratio of 90% or more (almost completely withered)),5 (Herbicidal ratio of 90% or more (almost completely withered)),2 (Herbicidal ratio of 20% or higher and lower than 40%),5 (Herbicidal ratio of 90% or more (almost completely withered)),5 (Herbicidal ratio of 90% or more (almost completely withered)),4 (Herbicidal ratio of 70% or higher and lower than 90%),5 (Herbicidal ratio of 90% or more (almost completely withered)),5 (Herbicidal ratio of 90% or more (almost completely withered)),0 (Herbicidal ratio of 5% or lower (almost no effect)),0 (Herbicidal ratio of 5% or lower (almost no effect)),0 (Herbicidal ratio of 5% or lower (almost no effect)),5 (Herbicidal ratio of 90% or more (almost completely withered)),–,5 (Herbicidal ratio of 90% or more (almost completely withered)),5 (Herbicidal ratio of 90% or more (almost completely withered)),4 (Herbicidal ratio of 70% or higher and lower than 90%),–
CC(=O)CC1CC(OC(=O)C(C)(C)C)=C(c2c(C)cc(C)cc2C)C1=O (stereo not shown) [2-018],5 (Herbicidal ratio of 90% or more (almost completely withered)),4 (Herbicidal ratio of 70% or higher and lower than 90%),0 (Herbicidal ratio of 5% or lower (almost no effect)),5 (Herbicidal ratio of 90% or more (almost completely withered)),5 (Herbicidal ratio of 90% or more (almost completely withered)),0 (Herbicidal ratio of 5% or lower (almost no effect)),5 (Herbicidal ratio of 90% or more (almost completely withered)),2 (Herbicidal ratio of 20% or higher and lower than 40%),0 (Herbicidal ratio of 5% or lower (almost no effect)),0 (Herbicidal ratio of 5% or lower (almost no effect)),0 (Herbicidal ratio of 5% or lower (almost no effect)),5 (Herbicidal ratio of 90% or more (almost completely withered)),3 (Herbicidal ratio of 40% or higher and lower than 70%),1 (Herbicidal ratio of 5% or higher and lower than 20%),4 (Herbicidal ratio of 70% or higher and lower than 90%),1 (Herbicidal ratio of 5% or higher and lower than 20%),–
